Assay results as given in ChEMBL document CHEMBL3885881, “DrugMatrix”.

Species on record: Rattus norvegicus
Assay: DrugMatrix - Regimen: Daily Repeat
Type: toxicity, organism-based, Sprague-Dawley
Set-up: regimen Daily Repeat, gender Male, age 6-8 weeks
Conditions: in vivo, po, route oral GAVAGE, vehicle 100 % SALINE; for GLUCOSE / LACTATE DEHYDROGENASE / LIPASE / PHOSPHORUS / SODIUM / TOTAL BILIRUBIN / TOTAL PROTEIN / ALANINE AMINOTRANSFERASE / ALBUMIN / ALKALINE PHOSPHATASE / ASPARTATE AMINOTRANSFERASE / BLOOD UREA NITROGEN / CARBON DIOXIDE / CHLORIDE / CHOLESTEROL / CREATINE PHOSPHOKINASE / CREATININE: tissue Plasma; for ABSOLUTE BASOPHIL / ABSOLUTE EOSINOPHIL / ABSOLUTE LYMPHOCYTE / ABSOLUTE MONOCYTE / ABSOLUTE SEGMENTED NEUTROPHIL / BASOPHIL / EOSINOPHIL / ERYTHROCYTE COUNT / HEMATOCRIT / HEMOGLOBIN / LEUKOCYTE COUNT / LYMPHOCYTE / MEAN CORPUSCULAR HEMOGLOBIN / MEAN CORPUSCULAR HEMOGLOBIN CONCENTRATION / MONOCYTE / NEUTROPHIL / NUCLEATED RED BLOOD CELLS / PLATELET COUNT: tissue Blood
[1] = 0 mg/kg, […], dose level Control, time 7 day
[2] = 140 mg/kg, 72 h, dose level Low, time 3 day
[3] = 140 mg/kg, 120 h, dose level Low, time 5 day
[4] = 700 mg/kg, 72 h, dose level Low, time 3 day

With `CN(C)C=O` [DIMETHYLFORMAMIDE] the GLUCOSE [1] was 132.67 mg/dL, the “LACTATE DEHYDROGENASE” value [1] was 107.17 u/L and the LIPASE [1] was 10.5 u/L. The PHOSPHORUS [1] was 10.47 mg/dL, the SODIUM [1] was 140.73 MEQ/L and the “TOTAL BILIRUBIN” value [1] was 0.12 mg/dL. The “TOTAL PROTEIN” value [1] was 6.18 G/DL, the “ABSOLUTE BASOPHIL” value [2] was 0 CELLS/uL and the “ABSOLUTE EOSINOPHIL” value [2] was 31.33 CELLS/uL. For the same compound, the “ABSOLUTE LYMPHOCYTE” value [2] was 5899.33 CELLS/uL, the “ABSOLUTE MONOCYTE” value [2] was 62.67 CELLS/uL and the “ABSOLUTE SEGMENTED NEUTROPHIL” value [2] was 306.67 CELLS/uL. For the same compound, the BASOPHIL [2] was 0%, the EOSINOPHIL [2] was 0.33% and the “ERYTHROCYTE COUNT” value [2] was 4.99 x10E6/uL. The HEMATOCRIT [2] was 31.43%, the HEMOGLOBIN [2] was 12.53 G/DL and the “LEUKOCYTE COUNT” value [2] was 6.3 x10E3/uL. The LYMPHOCYTE [2] was 94.67%, the “MEAN CORPUSCULAR HEMOGLOBIN” value [2] was 25.27 pg and the “MEAN CORPUSCULAR HEMOGLOBIN CONCENTRATION” value [2] was 40.07 G/DL. The MONOCYTE [2] was 0.67%, the NEUTROPHIL [2] was 4.33% and the “NUCLEATED RED BLOOD CELLS” value [2] was 0 /100WBC. For the same compound, the “PLATELET COUNT” value [2] was 734 x10E3/uL, the “ALANINE AMINOTRANSFERASE” value [2] was 52.67 u/L and the ALBUMIN [2] was 4.17 G/DL. For the same compound, the “ALKALINE PHOSPHATASE” value [2] was 264.67 u/L, the “ASPARTATE AMINOTRANSFERASE” value [2] was 88.67 u/L and the “BLOOD UREA NITROGEN” value [2] was 12.33 mg/dL. The “CARBON DIOXIDE” value [2] was 36.67 mmol/L, the CHLORIDE [2] was 97.33 MEQ/L and the CHOLESTEROL [2] was 97.67 mg/dL. For the same compound, the “CREATINE PHOSPHOKINASE” value [2] was 161.33 u/L, the CREATININE [2] was 0.33 mg/dL and the GLUCOSE [2] was 208 mg/dL. For the same compound, the “LACTATE DEHYDROGENASE” value [2] was 181.33 u/L, the LIPASE [2] was 10.67 u/L and the PHOSPHORUS [2] was 11.23 mg/dL. The SODIUM [2] was 148.43 MEQ/L, the “TOTAL BILIRUBIN” value [2] was 0.2 mg/dL and the “TOTAL PROTEIN” value [2] was 6.1 G/DL. For the same compound, the “ABSOLUTE BASOPHIL” value [3] was 0 CELLS/uL, the “ABSOLUTE EOSINOPHIL” value [3] was 0 CELLS/uL and the “ABSOLUTE LYMPHOCYTE” value [3] was 9653 CELLS/uL. The “ABSOLUTE MONOCYTE” value [3] was 169 CELLS/uL, the “ABSOLUTE SEGMENTED NEUTROPHIL” value [3] was 644.67 CELLS/uL and the BASOPHIL [3] was 0%. For the same compound, the EOSINOPHIL [3] was 0%, the “ERYTHROCYTE COUNT” value [3] was 6.77 x10E6/uL and the HEMATOCRIT [3] was 41.07%. The HEMOGLOBIN [3] was 15.33 G/DL, the “LEUKOCYTE COUNT” value [3] was 10.47 x10E3/uL and the LYMPHOCYTE [3] was 93.33%. The “MEAN CORPUSCULAR HEMOGLOBIN” value [3] was 22.63 pg, the “MEAN CORPUSCULAR HEMOGLOBIN CONCENTRATION” value [3] was 37.33 G/DL and the MONOCYTE [3] was 1.67%. For the same compound, the NEUTROPHIL [3] was 5%, the “NUCLEATED RED BLOOD CELLS” value [3] was 0 /100WBC and the “PLATELET COUNT” value [3] was 1170.67 x10E3/uL. For the same compound, the “ALANINE AMINOTRANSFERASE” value [3] was 57.33 u/L, the ALBUMIN [3] was 4.4 G/DL and the “ALKALINE PHOSPHATASE” value [3] was 234.67 u/L. The “ASPARTATE AMINOTRANSFERASE” value [3] was 93.67 u/L, the “BLOOD UREA NITROGEN” value [3] was 17.67 mg/dL and the “CARBON DIOXIDE” value [3] was 34.33 mmol/L. The CHLORIDE [3] was 96.33 MEQ/L, the CHOLESTEROL [3] was 111.33 mg/dL and the “CREATINE PHOSPHOKINASE” value [3] was 195.67 u/L. The CREATININE [3] was 0.19 mg/dL, the GLUCOSE [3] was 171.33 mg/dL and the “LACTATE DEHYDROGENASE” value [3] was 243 u/L. The LIPASE [3] was 11.33 u/L, the PHOSPHORUS [3] was 10.83 mg/dL and the SODIUM [3] was 145.97 MEQ/L. The “TOTAL BILIRUBIN” value [3] was 0.13 mg/dL, the “TOTAL PROTEIN” value [3] was 6.67 G/DL and the “ABSOLUTE BASOPHIL” value [4] was 0 CELLS/uL. For the same compound, the “ABSOLUTE EOSINOPHIL” value [4] was 0 CELLS/uL, the “ABSOLUTE LYMPHOCYTE” value [4] was 7783.67 CELLS/uL and the “ABSOLUTE MONOCYTE” value [4] was 176.17 CELLS/uL. The “ABSOLUTE SEGMENTED NEUTROPHIL” value [4] was 1123.5 CELLS/uL, the BASOPHIL [4] was 0% and the EOSINOPHIL [4] was 0%. The “ERYTHROCYTE COUNT” value [4] was 5.7 x10E6/uL, the HEMATOCRIT [4] was 37.75% and the HEMOGLOBIN [4] was 13.52 G/DL. The “LEUKOCYTE COUNT” value [4] was 9.08 x10E3/uL, the LYMPHOCYTE [4] was 86.17% and the “MEAN CORPUSCULAR HEMOGLOBIN” value [4] was 23.73 pg. For the same compound, the “MEAN CORPUSCULAR HEMOGLOBIN CONCENTRATION” value [4] was 35.83 G/DL, the MONOCYTE [4] was 1.83% and the NEUTROPHIL [4] was 12%. The “NUCLEATED RED BLOOD CELLS” value [4] was 0 /100WBC, the “PLATELET COUNT” value [4] was 951.67 x10E3/uL and the “ALANINE AMINOTRANSFERASE” value [4] was 77.33 u/L.
